Assay results taken from patent publication US10227344B2, “CK2 inhibitors, compositions and methods thereof” (Polaris Pharmaceuticals, Inc., priority 2016, dated 2019).
Counter-ions that a name gives are not always drawn.

Target: purified CK2α enzyme (Homo sapiens, UniProt P68400)
Experiment: CK2 Protein Kinase Inhibition Assay (coupled PK/LDH assay)
Format: biochemical
Details: CK2 enzyme 25 nM, 100 μM ATP, 37° C., Morrison equation
Method: A coupled PK (pyruvate kinase)/LDH (lactate dehydrogenase) assay was used to measure compounds' ability to inhibit purified CK2α enzyme.
The ADP product of kinase CK2a is the cofactor for PK. Phospho(enol)pyruvate (PEP) PEP is metabolized by pyruvate kinase to yield pyruvate, which is the substrate for LDH.
Serially diluted compounds were pre-incubated for 10 min at 37° C. with and 1.5 mM […] peptide substrate, 6 U/ml PK and 10 U/ml LDH (purchased from Sigma-Aldrich), 100 μM ATP, 1.2 mM NADH, 4 mM PEP in the reaction buffer (50 mM Tris (pH 8.25), 0.1 M NaCl, 10 mM magnesium acetate). The reaction was initiated by the addition of an equal volume of purified CK2 enzyme (final concentration 25 nM) diluted in the reaction buffer. Absorbance at 340 nm was measured overtime (for 30 min) at 37° C.; as NADH was converted to NAD+ the absorbance decreases. Absorbance decrease rate (per min) was plotted against the compound concentration and Ki is determined by GraphPad Prism using Morrison equation. All data points were performed in triplicate and each compound was tested in at least two separate experiments.
To this end, K, values of less than 2.5 nM are labelled as “+++”, from 2.5 nM to 10 nM are labelled as “++”, and greater than 10 nM are labelled as “+”.

purified CK2α enzyme, sequence (P68400 whole entry): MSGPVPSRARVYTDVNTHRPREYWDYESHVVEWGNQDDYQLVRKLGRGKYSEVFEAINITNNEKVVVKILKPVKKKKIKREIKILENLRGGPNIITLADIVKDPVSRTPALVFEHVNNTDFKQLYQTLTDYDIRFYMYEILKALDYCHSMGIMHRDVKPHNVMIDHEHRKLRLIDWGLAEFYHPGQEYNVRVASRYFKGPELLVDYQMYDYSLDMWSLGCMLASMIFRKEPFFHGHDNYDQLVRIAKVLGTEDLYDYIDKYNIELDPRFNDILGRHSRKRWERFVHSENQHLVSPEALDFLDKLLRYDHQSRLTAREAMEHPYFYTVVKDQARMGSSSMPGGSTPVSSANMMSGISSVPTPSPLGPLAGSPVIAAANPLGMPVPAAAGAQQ

Row | Compound | Ki [nM]
1 | C[S+]([O-])Cc1cc(Nc2cc(NC3CC3)n3ncc(C#N)c3n2)ccc1Cl (racemic) [Example 1, (±)-5-((4-Chloro-3-((methylsulfinyl)methyl)phenyl)amino)-7-(cyclopropylamino)pyrazolo[1,5-a]pyrimidine-3-carbonitrile] | < 2.5
2 | C[S+]([O-])Cc1cc(Nc2cc(NC3CC3)n3ncc(C#N)c3n2)ccc1F (racemic) [Example 5, (±)-7-(Cyclopropylamino)-5-((4-fluoro-3-((methylsulfinyl)methyl)phenyl)amino)pyrazolo[1,5-a]pyrimidine-3-carbonitrile] | 2.5 to 10
3 | C[S+]([O-])Cc1cc(Nc2cc(NC3CC3)n3ncc(C#N)c3n2)ccc1C#N (racemic) [Example 6, (±)-5-((4-Cyano-3-((methylsulfinyl)methyl)phenyl)amino)-7-(cyclopropylamino)pyrazolo[1,5-a]pyrimidine-3-carbonitrile] | 2.5 to 10
4 | CN(CCN)c1ccc(Nc2cc(NC3CC3)n3ncc(C#N)c3n2)cc1C[S+](C)[O-] (racemic) [Example 7, (±)-5-((4-((2-Aminoethyl)(methyl)amino)-3-((methylsulfinyl)methyl)phenyl)amino)-7-(cyclopropylamino)pyrazolo[1,5-a]pyrimidine-3-carbonitrile mono trifluoroacetic acid salt] | < 2.5
5 | C[S+]([O-])Cc1cc(Nc2cc(NC3CC3)n3ncc(C#N)c3n2)ccc1CCN (racemic) [Example 8, (±)-5-((4-(2-Aminoethyl)-3-((methylsulfinyl)methyl)phenyl)amino)-7-(cyclopropylamino)pyrazolo[1,5-a]pyrimidine-3-carbonitrile mono trifluoroacetic acid salt] | < 2.5
6 | CS(=N)(=O)Cc1cc(Nc2cc(NC3CC3)n3ncc(C#N)c3n2)ccc1Cl (racemic) [Example 12, (±)-5-((4-Chloro-3-((S-methylsulfonimidoyl)methyl)phenyl)amino)-7-(cyclopropylamino)pyrazolo[1,5-a]pyrimidine-3-carbonitrile] | 2.5 to 10
7 | C[S+]([O-])Cc1cc(Nc2cc(NC3CC3)n3ncc(C#N)c3n2)ccc1C1CC1 (racemic) [Example 13, (±)-5-((4-Cyclopropyl-3-((methylsulfinyl)methyl)phenyl)amino)-7-(cyclopropylamino)pyrazolo[1,5-a]pyrimidine-3-carbonitrile] | < 2.5
8 | C[S+]([O-])Cc1cc(Nc2cc(NC3CC3)n3ncc(C#N)c3n2)ccc1N1CCNCC1 (racemic) [Example 14, (±)-7-(Cyclopropylamino)-5-((3-((methylsulfinyl)methyl)-4-(piperazin-1-yl)phenyl)amino)pyrazolo[1,5-a]pyrimidine-3-carbonitrile mono trifluoroacetic acid salt] | 2.5 to 10
9 | C[S+]([O-])Cc1cc(Nc2cc(NC3CC3)n3ncc(C#N)c3n2)ccc1CN (racemic) [Example 15, (±)-5-((4-(Aminomethyl)-3-((methylsulfinyl)methyl)phenyl)amino)-7-(cyclopropylamino)pyrazolo[1,5-a]pyrimidine-3-carbonitrile mono trifluoroacetic acid salt] | 2.5 to 10
10 | CN(CC1CC1)c1ccc(Nc2cc(NC3CC3)n3ncc(C#N)c3n2)cc1C[S+](C)[O-] (racemic) [Example 16, (±)-7-(Cyclopropylamino)-5-((4-((cyclopropylmethyl)(methyl)amino)-3-((methylsulfinyl)methyl)phenyl)amino)pyrazolo[1,5-a]pyrimidine-3-carbonitrile] | < 2.5
11 | CNCCN(C)c1ccc(Nc2cc(NC3CC3)n3ncc(C#N)c3n2)cc1C[S+](C)[O-] (racemic) [Example 21, (±)-7-(Cyclopropylamino)-5-((4-(methyl(2-(methylamino)ethyl)amino)-3-((methylsulfinyl)methyl)phenyl)amino)pyrazolo[1,5-a]pyrimidine-3-carbonitrile mono trifluoroacetic acid salt] | < 2.5
12 | C[S+]([O-])Cc1cc(Nc2cc(NC3CC3)n3ncc(C#N)c3n2)ccc1N1CC(O)C1 (racemic) [Example 27, (±)-7-(cyclopropylamino)-5-((4-(3-hydroxyazetidin-1-yl)-3-((methylsulfinyl)methyl)phenyl)amino)pyrazolo[1,5-a]pyrimidine-3-carbonitrile] | < 2.5
13 | C[S+]([O-])Cc1cc(Nc2cc(NC3CC3)n3ncc(C#N)c3n2)ccc1OCC1(N)CC1 (racemic) [Example 28, (±)-5-((4-((1-aminocyclopropyl)methoxy)-3-((methylsulfinyl)methyl)phenyl)amino)-7-(cyclopropylamino)pyrazolo[1,5-a]pyrimidine-3-carbonitrile mono trifluoroacetic acid salt] | 2.5 to 10
14 | C[S+]([O-])Cc1cc(Nc2cc(NC3CC3)n3ncc(C#N)c3n2)ccc1OCC(C)(C)N (racemic) [Example 30, (±)-5-((4-(2-amino-2-methylpropoxy)-3-((methylsulfinyl)methyl)phenyl)amino)-7-(cyclopropylamino)pyrazolo[1,5-a]pyrimidine-3-carbonitrile mono trifluoroacetic acid salt] | 2.5 to 10
15 | C[S+]([O-])Cc1cc(Nc2cc(NC3CC3)n3ncc(C#N)c3n2)ccc1-c1cn[nH]c1 (racemic) [Example 35, (±)-7-(Cyclopropylamino)-5-((3-((methylsulfinyl)methyl)-4-(1H-pyrazol-4-yl)phenyl)amino)pyrazolo[1,5-a]pyrimidine-3-carbonitrile] | > 10
16 | CN(c1ccc(Nc2cc(NC3CC3)n3ncc(C#N)c3n2)cc1C[S+](C)[O-])C1CC1 (racemic) [Example 36, (±)-5-((4-(Cyclopropyl(methyl)amino)-3-((methylsulfinyl)methyl)phenyl)amino)-7-(cyclopropylamino)pyrazolo[1,5-a]pyrimidine-3-carbonitrile] | < 2.5
17 | C[S+]([O-])Cc1cc(Nc2cc(NC3CC3)n3ncc(C#N)c3n2)ccc1C1(CN)CC1 (racemic) [Example 38, (±)-5-((4-(1-(Aminomethyl)cyclopropyl)-3-((methylsulfinyl)methyl)phenyl)amino)-7-(cyclopropylamino)pyrazolo[1,5-a]pyrimidine-3-carbonitrile] | 2.5 to 10
18 | C[S+]([O-])Cc1cc(Nc2cc(NC3CC3)n3ncc(C#N)c3n2)ccc1N1CC(N)C1 (racemic) [Example 40, (±)-5-((4-(3-Aminoazetidin-1-yl)-3-((methylsulfinyl)methyl)phenyl)amino)-7-(cyclopropylamino)pyrazolo[1,5-a]pyrimidine-3-carbonitrile] | < 2.5
19 | C[S+]([O-])Cc1cc(Nc2cc(NC3CC3)n3ncc(C#N)c3n2)ccc1N1CC(CN)C1 (racemic) [Example 42, (±)-5-((4-(3-(Aminomethyl)azetidin-1-yl)-3-((methylsulfinyl)methyl)phenyl)amino)-7-(cyclopropylamino)pyrazolo[1,5-a]pyrimidine-3-carbonitrile] | < 2.5
20 | CN(c1ccc(Nc2cc(NC3CC3)n3ncc(C#N)c3n2)cc1C[S+](C)[O-])C1CNC1 (racemic) [Example 44, (±)-5-((4-(Azetidin-3-yl(methyl)amino)-3-((methylsulfinyl)methyl)phenyl)amino)-7-(cyclopropylamino)pyrazolo[1,5-a]pyrimidine-3-carbonitrile] | 2.5 to 10
21 | C[S+]([O-])Cc1cc(Nc2cc(NC3CC3)n3ncc(C#N)c3n2)ccc1N1CCCC1 (racemic) [Example 46, (±)-7-(Cyclopropylamino)-5-((3-((methylsulfinyl)methyl)-4-(pyrrolidin-1-yl)phenyl)amino)pyrazolo[1,5-a]pyrimidine-3-carbonitrile] | < 2.5
22 | CN(CCN)c1ccc(Nc2cc(NC3CC3)c3ncc(C#N)n3n2)cc1C[S+](C)[O-] (racemic) [Example 47, (±)-6-((4-((2-Aminoethyl)(methyl)amino)-3-((methylsulfinyl)methyl)phenyl)amino)-8-(cyclopropylamino)imidazo[1,2-b]pyridazine-3-carbonitrile mono trifluoroacetic acid salt] | 2.5 to 10
23 | CN(CCN)c1ccc(Nc2nc(NC3CC3)c3ncc(C#N)n3n2)cc1C[S+](C)[O-] (racemic) [Example 49, (±)-2-((4-((2-aminoethyl)(methyl)amino)-3-((methylsulfinyl)methyl)phenyl)amino)-4-(cyclopropylamino)imidazo[2,1-f][1,2,4]triazine-7-carbonitrile mono trifluoroacetic acid salt] | 2.5 to 10
24 | CN(CCN)c1ccc(Nc2nc(NC3CC3)n3ncc(C#N)c3n2)cc1C[S+](C)[O-] (racemic) [Example 51, (±)-2-((4-((2-aminoethyl)(methyl)amino)-3-((methylsulfinyl)methyl)phenyl)amino)-4-(cyclopropylamino)pyrazolo[1,5-a][1,3,5]triazine-8-carbonitrile mono trifluoroacetic acid salt] | < 2.5
25 | C[S+]([O-])Cc1cc(Nc2cc(Nc3ccccn3)n3ncc(C#N)c3n2)ccc1C1CC1 (racemic) [Example 54, (±)-5-((4-Cyclopropyl-3-((methylsulfinyl)methyl)phenyl)amino)-7-(pyridin-2-ylamino)pyrazolo[1,5-a]pyrimidine-3-carbonitrile] | < 2.5
